In test [1] the test system is Ras farnesylation (viral Ha-ras p21) in the v-ras cell line. Nature of the test: In vivo ras farnesylation assay in the v-ras cell line. The format is cell-based. The note with it: v-ras cells; 4 hours at 37° C. then additional 20 hours with [35S]methionine; read-out: IC50, inhibition of Ras farnesylation in the v-ras cell line. How it is done: The cell line used in this assay was the v-ras line, which expressed viral Ha-ras p21. The assay was performed essentially as described in DeClue, J. E. et. al., Cancer Research 51:712-717, (1991). Cells in 10 cm dishes at 50-75% confluency were treated with the test s compound (final concentration of solvent, methanol or dimethyl sulfoxide, was 0.1%). After 4 hours at 37° C., the cells were labelled in 3 ml methionine-free DMEM supplemented with 10% regular DMEM, 2% fetal bovine serum and 400 μCi[^35 S]methionine (1000 Ci/mmol). After an additional 20 hours, the cells were lysed in 1 ml lysis buffer (1% NP40/20 mM HEPES, pH 7.5/5 mM MgCl2 /1 mM DTT/10 μg/ml aprotinen/2 μg/ml leupeptin/2 μg/ml antipain/0.5 mM PMSF) and the lysates cleared by centrifugation at 100,000 × g for 45 min. Aliqouts of lysates containing equal numbers of acid-precipitable counts were bought to 1 ml with IP buffer (lysis buffer lacking DTT) and immunoprecipitated with the ras-specific monoclonal antibody Y13-259 (Furth, M. E. et. al., J. Virol. 43:294-304, (1982)). Following a 2 hour antibody incubation at 4° C., […] of a 25% suspension of protein A-Sepharose coated with rabbit anti rat IgG was added for 45 min. […]

The target of another test is T1, Bovine FPTase (Bos taurus, UniProt P29702+P49355).
T1 construct: Partially purified bovine FPTase; from tissue
Nature of the test: In vitro inhibition of ras farnesyl transferase, partially purified bovine FPTase, Ras-CVLS and [3H]-FPP. The format is biochemical. The note with it: 650 nM Ras-CVLS, pH 7.4, 31° C., 60 min, read-out: IC50, inhibition of RAS farnesylation (concentration giving 50% inhibition of FTase). Here is the method: Assays of farnesyl-protein transferase. Partially purified bovine FPTase and Ras peptides (Ras-CVLS, Ras-CVIM and RAS-CAIL) were prepared as described by Schaber et al., J. Biol. Chem. 265:14701-14704 (1990), Pompliano, et al., Biochemistry 31:3800 (1992) and Gibbs et at., PNAS U.S.A. 86:6630-6634 (1989), respectively. Bovine FPTase was assayed in a volume of 100 μl containing 100 mM N-(2-hydroxy ethyl) piperazine-N'-(2-ethane sulfonic acid) (HEPES), pH 7.4, 5 mM MgCl2, 5 mM dithiothreitol (DTT), […] [^3 H]-farnesyl diphosphate ([^3 H]-FPP; […], New England Nuclear), 650 nM Ras-CVLS and 10 μg/ml FPTase at 31° C. for 60 min. Reactions were initiated with FPTase and stopped with 1 ml of 1.0M HCL in ethanol. Precipitates were collected onto filter-mats using a TomTec Mach II cell harvestor, washed with 100% ethanol, dried and counted in an LKB β-plate counter. The assay was linear with respect to both substrates, FPTase levels and time; less than 10% of the [ ^3 H]-FPP was utilized during the reaction period. Purified compounds were dissolved in 100% dimethyl sulfoxide (DMSO) and were diluted 20-fold into the assay. Percentage inhibition is measured by the amount of incorporation of farnesyl in the presence of the test compound when compared to the amount of incorporation in the absence of the test compound.

A further test deals with T2, Human FPTase (Homo sapiens, UniProt P49354+P49356).
T2 construct: made in house
The test is described as follows: In vitro inhibition of ras farnesyl transferase, recombinant human FPTase, Ras-CVIM and [3H]-FPP. The format is biochemical. The following applies: 100 nM Ras-CVIM, 30 min, read-out: IC50, inhibition of RAS farnesylation (concentration giving 50% inhibition of FTase).

A further test has as its system Ras farnesylation. The following applies: Hancock et al., Casey et al., Schafer et al.; cited from earlier work.

As for `CC[C@H](C)[C@@H](C(=O)N[C@H]1CCOC1=O)N(C)C[C@@H](NC[C@@H](N)CS)[C@@H](C)CC` [N-[2(S)-(2(R)-Amino-3-mercaptopropylamino)-3(S)-methylpentyl]-N-methyl-isoleucyl-homoserine lactone], in test [1], the IC50 was 50 µM.
On to `CC[C@H](C)[C@@H](C(=O)N[C@@H](CCO)C(=O)O)N(C)C[C@@H](NC[C@@H](N)CS)[C@@H](C)CC` [N-[2(S)-(2(R)-Amino-3-mercaptopropylamino)-3(S)-methylpentyl]-N-methyl-isoleucyl-homoserine], for which, on Bovine FPTase, the IC50 turned out to be 0.072 µM.
Take `CC[C@H](C)[C@@H](C(=O)N[C@@H](CCSC)C(=O)OC)N(C)C[C@@H](NC[C@@H](N)CS)[C@@H](C)CC` [N-[2(S)-(2(R)-amino-3-mercaptopropylamino)-3(S)-methyl-pentyl]-N-methyl-isoleucyl-methionine methyl ester]: in test [1], the IC50 worked out at 5 µM.
With `CC[C@H](C)[C@@H](C(=O)N[C@@H](CCSC)C(=O)O)N(C)C[C@@H](NC[C@@H](N)CS)[C@@H](C)CC` [N-[2(S)-(2(R)-amino-3-mercaptopropylamino)-3(S)-methyl-pentyl]-N-methyl-isoleucyl-methionine], the IC50 on Human FPTase came to 0.02 µM.
As to `CC[C@H](C)C(=O)O[C@H]1CCC=C2C=C[C@H](C)[C@H](CC[C@@H]3C[C@@H](O)CC(=O)O3)[C@H]21` [compactin], in the test with Ras farnesylation, the “Inhibition of Ras farnesylation in vivo” value is “Inhibition of Ras farnesylation in vivo has been demonstrated”.
With `CC[C@H](C)C(=O)O[C@H]1C[C@@H](C)C=C2C=C[C@H](C)[C@H](CC[C@@H]3C[C@@H](O)CC(=O)O3)[C@H]21` [lovastatin], the “Inhibition of Ras farnesylation in vivo” value with Ras farnesylation is listed as “Inhibition of Ras farnesylation in vivo has been demonstrated”.

These data come from patent US5536750A, “Inhibitors of farnesyl-protein transferase” (Merck & Co., Inc., priority 1994, dated 1996).
